Measured values reported in the supplement of paper PMC10627819.

What was measured:
[1] = system: S. pneumoniae D39V; assay: Bliss interaction score (quartile over a dose matrix) (fitness difference); higher = more antagonism (negative = synergy)
In short: (§1)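 The Bliss score takes observed fitness and subtracts the expected fitness, calculated as a product of single-drug fitness values. Those single-drug values were inferred from the combination data. Fitness is OD595 at entry into stationary phase divided by the plate's robust no-drug mean, capped at 1, and the score is summarised by quartiles across technical, biological and donor/recipient replicates.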

[2] = system: S. aureus DSM 20231; assay: as above
In short: as §1

[3] = system: B. subtilis 168; assay: as above
In short: as §1

[4] = system: S. aureus Newman; assay: as above
In short: as §1

[5] = system: S. pneumoniae D39V; assay: fitness (endpoint OD595 vs no drug) (fraction); higher = more growth
In short: (§2)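 Fitness is computed from the optical density at which cultures reach stationary phase, divided by the robust mean of no-drug control wells. Any value above 1 is set to 1. Cultures started at OD595 0.01 in 384-well plates with TSB, LB Lennox or CY at 37 °C, and OD595 was read every 30 min for 14 h against a first-reading background.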

[6] = system: S. aureus DSM 20231; assay: as above
In short: as §2

[7] = system: B. subtilis 168; assay: as above
In short: as §2

[8] = system: S. aureus Newman; assay: as above
In short: as §2

[9] = first compound 0.078 µg/mL, partner 0.0156 µg/mL
[10] = first compound 0.078 µg/mL, partner 0.0312 µg/mL
[11] = first compound 0.078 µg/mL, partner 0.0625 µg/mL
[12] = first compound 0.156 µg/mL, partner 0.0156 µg/mL
[13] = first compound 0.156 µg/mL, partner 0.0312 µg/mL
[14] = first compound 0.156 µg/mL, partner 0.0625 µg/mL
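Wherever Bliss interaction score (quartile over a dose matrix) is given: first quartile when negative (synergy) and third quartile when positive (antagonism).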
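Wherever fitness (endpoint OD595 vs no drug) is given: OD595 on entry to stationary phase over no-drug wells; at most 1.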

CO/N=C(\C(=O)N[C@@H]1C(=O)N2C(C(=O)O)=C(COC(C)=O)CS[C@H]12)c1csc(N)n1 [Cefotaxime] + Cc1onc(-c2ccccc2)c1C(=O)N[C@@H]1C(=O)N2[C@@H]1SC(C)(C)[C@@H]2C(=O)O [Oxacillin]
Bliss interaction score [1]: -0.116
Bliss interaction score [2]: 0.0453
Bliss interaction score [3]: 0.0466
Bliss interaction score [4]: 0.0747
fitness ([5]; first compound 0.0018 µg/mL, partner 0.005 µg/mL): 0.999
fitness ([5]; first compound 0.0018 µg/mL, partner 0.01 µg/mL): 0.983
fitness ([5]; first compound 0.0018 µg/mL, partner 0.02 µg/mL): 0.937
fitness ([5]; first compound 0.0018 µg/mL, partner 0.04 µg/mL): 0.345
fitness ([5]; first compound 0.0035 µg/mL, partner 0.005 µg/mL): ≥ 1
fitness ([5]; first compound 0.0035 µg/mL, partner 0.01 µg/mL): 0.979
fitness ([5]; first compound 0.0035 µg/mL, partner 0.02 µg/mL): 0.874
fitness ([5]; first compound 0.0035 µg/mL, partner 0.04 µg/mL): 0.189
fitness ([5]; first compound 0.007 µg/mL, partner 0.005 µg/mL): 0.979
fitness ([5]; first compound 0.007 µg/mL, partner 0.04 µg/mL): 0.0612
fitness ([6]; first compound 0.039 µg/mL, partner 0.0156 µg/mL): 0.696
fitness ([6]; first compound 0.039 µg/mL, partner 0.0312 µg/mL): 0.624
fitness ([6]; first compound 0.039 µg/mL, partner 0.0625 µg/mL): 0.632
fitness [6, 9]: 0.681
fitness [6, 10]: 0.655
fitness [6, 11]: 0.639
fitness [6, 12]: 0.599
fitness [6, 13]: 0.623
fitness [6, 14]: 0.655
fitness ([6]; first compound 0.312 µg/mL, partner 0.0156 µg/mL): 0.593
fitness ([6]; first compound 0.312 µg/mL, partner 0.0312 µg/mL): 0.594
fitness ([6]; first compound 0.312 µg/mL, partner 0.0625 µg/mL): 0.478
fitness ([7]; first compound 0.00775 µg/mL, partner 0.0078 µg/mL, one replicate): 0.82
fitness ([7]; first compound 0.00775 µg/mL, partner 0.0155 µg/mL, one replicate): 0.789
fitness ([7]; first compound 0.00775 µg/mL, partner 0.031 µg/mL, one replicate): 0.741
fitness ([7]; first compound 0.0155 µg/mL, partner 0.0078 µg/mL, one replicate): 0.644
fitness ([7]; first compound 0.0155 µg/mL, partner 0.0155 µg/mL, one replicate): 0.664
fitness ([7]; first compound 0.0155 µg/mL, partner 0.031 µg/mL, one replicate): 0.548
fitness ([7]; first compound 0.031 µg/mL, partner 0.0078 µg/mL, one replicate): 0.482
fitness ([7]; first compound 0.031 µg/mL, partner 0.0155 µg/mL, one replicate): 0.537
fitness ([7]; first compound 0.031 µg/mL, partner 0.031 µg/mL, one replicate): 0.395
fitness ([7]; first compound 0.0625 µg/mL, partner 0.075 µg/mL, one replicate): 0.0512
fitness ([7]; first compound 0.0625 µg/mL, partner 0.15 µg/mL, one replicate): 0.0585
fitness ([7]; first compound 0.0625 µg/mL, partner 0.3 µg/mL, one replicate): 0.0527
fitness ([7]; first compound 0.125 µg/mL, partner 0.075 µg/mL, one replicate): 0.0627
fitness ([7]; first compound 0.125 µg/mL, partner 0.15 µg/mL, one replicate): 0.0636
fitness ([7]; first compound 0.125 µg/mL, partner 0.3 µg/mL, one replicate): 0.0489
fitness ([7]; first compound 0.25 µg/mL, partner 0.075 µg/mL, one replicate): 0.0575
fitness ([7]; first compound 0.25 µg/mL, partner 0.15 µg/mL, one replicate): 0.0677
fitness ([7]; first compound 0.25 µg/mL, partner 0.3 µg/mL, one replicate): 0.0596
fitness ([7]; first compound 0.5 µg/mL, partner 0.002 µg/mL): 0.272
fitness ([7]; first compound 0.5 µg/mL, partner 0.008 µg/mL): 0.249
fitness ([7]; first compound 1 µg/mL, partner 0.002 µg/mL): 0.158
fitness ([7]; first compound 1 µg/mL, partner 0.004 µg/mL): 0.118
fitness ([7]; first compound 1 µg/mL, partner 0.008 µg/mL): 0.133
fitness ([7]; first compound 2 µg/mL, partner 0.002 µg/mL): 0.115
fitness ([7]; first compound 2 µg/mL, partner 0.004 µg/mL): 0.114
fitness ([7]; first compound 2 µg/mL, partner 0.008 µg/mL): 0.113
fitness ([8]; first compound 0.039 µg/mL, partner 0.0156 µg/mL, one replicate): 0.689
fitness ([8]; first compound 0.039 µg/mL, partner 0.0312 µg/mL, one replicate): 0.662
fitness ([8]; first compound 0.039 µg/mL, partner 0.0625 µg/mL, one replicate): 0.629
fitness [8, 9]: 0.745
fitness [8, 10]: 0.627
fitness [8, 11]: 0.531
fitness [8, 12]: 0.6
fitness [8, 13]: 0.555
fitness [8, 14]: 0.38
fitness ([8]; first compound 0.312 µg/mL, partner 0.0156 µg/mL, one replicate): 0.317
fitness ([8]; first compound 0.312 µg/mL, partner 0.0312 µg/mL, one replicate): 0.224
fitness ([8]; first compound 0.312 µg/mL, partner 0.0625 µg/mL, one replicate): 0.181
fitness ([8]; first compound 0.625 µg/mL, partner 0.0156 µg/mL): 0.0697
fitness ([8]; first compound 0.625 µg/mL, partner 0.0312 µg/mL): 0.0379
fitness ([8]; first compound 0.625 µg/mL, partner 0.0625 µg/mL): 0.0206
fitness ([8]; first compound 1.25 µg/mL, partner 0.0156 µg/mL): 0.0601
fitness ([8]; first compound 1.25 µg/mL, partner 0.0312 µg/mL): 0.0503
fitness ([8]; first compound 1.25 µg/mL, partner 0.0625 µg/mL): 0.0594
fitness ([8]; first compound 2.5 µg/mL, partner 0.0156 µg/mL): 0.0599
fitness ([8]; first compound 2.5 µg/mL, partner 0.0312 µg/mL): 0.0551
fitness ([8]; first compound 2.5 µg/mL, partner 0.0625 µg/mL): 0.0574
